According to patent publication US9328372B2, “Coenzyme-linked glucose dehydrogenase and polynucleotide encoding the same” (Ikeda Food Research Co., Ltd., priority 2005, dated 2016):

Tested on: coenzyme-linked glucose dehydrogenase
Assay: Inhibitor test with 1,10-phenanthroline
Assay type: biochemical, Aspergillus terreus
Procedure: 1.0 ml of 0.1 M potassium phosphate buffer (pH 7.0), 1.0 ml of 1.0 M D-glucose, 0.1 ml of 3 mM 2,6-dichlorophenolindophenol (hereinafter, referred to as DCIP), 0.2 ml of 3 mM 1-methoxy-5-methylphenazium methylsulfate, and 0.65 ml of water are placed in a 3 ml quartz cell (with an optical path length of 1 cm), and then the cell is placed in a spectrophotometer equipped with a thermostat cell holder. After the cell is incubated at 37° C. for five minutes, 0.05 ml of an enzyme liquid is added thereto, followed by measuring absorbance change (αABS/min) of DCIP at 600 nm. The mol-absorption coefficient of DCIP at pH 7.0 is defined to be 16.3×10^3 cm^−1M^−1. Since one unit of the enzyme activity is substantially equivalent to the enzyme activity that reduces 1 μmol of DCIP per minute, the enzyme activity is determined by absorbance change in accordance with the following formula. To the reaction system in the activity measurement method-1, 1,10-phenanthroline dissolved in methanol so that each final concentration was 1 mM, 5 mM, 10 mM, 25 mM, or 50 mM, was added, followed by measuring the activity of the purified enzymes 1 to 6 by the activity measurement method-1. […] As a control, methanol was added to the reaction system in the activity measurement method-1 at the final concentration of 10% (v/v), and then the activity was measured by the activity measurement method-1. […]

c1cnc2c(c1)ccc1cccnc12 [1,10-phenanthroline]
inhibition ratio (1,10-phenanthroline at final concentration of 1 mM or more, purified enzymes 1 to 6, 10% (v/v) methanol): ≥ 60%
inhibition of the activity by 1,10-phenanthroline (GLD according to the invention, general characteristics, concentration not given): At least 60%
